Common to all, as to test: Minimum inhibitory concentration (MIC) in vitro in broth containing phenol red and glucose
Common to all, as to format: cell-based

In experiment [1] the test system is Listeria monocytogenes. Particulars: read-out: Werte der Mindesthemmkonzentration [MIC-Werte]. From the text:
(§1) Die Mindesthemmkonzentration (MIC-Werte) der Kombination der 3 obigen Wirkstoffe und der einzelnen obigen Wirkstoffe wurden in vitro gegen die Bakterienstämme Escherichia coli 494, Bordatella bronchiseptica, Staphylococcus aureus und Listeria monocytogenes in einer Phenolrot und Glucose enthaltenden Brühe [Hersteller: Firma Difca] bestimmt.

Experiment [2] has as its system Staphylococcus aureus. Conditions: read-out: Werte der Mindesthemmkonzentration [MIC-Werte].
Source text: as §1

Experiment [3] relates to Bordatella bronchiseptica. Conditions: read-out: Werte der Mindesthemmkonzentration [MIC-Werte].
Source text: as §1

The test system of experiment [4] is Gegen Chloramphenicol resistenter Stamm Escherichia coli 494. Particulars: single substance; inhibits bacterial growth for 24 hours; chloramphenicol-resistant Escherichia coli 494; read-out: Werte der Mindesthemmkonzentration [MIC-Werte].
Source text: as §1

Where [5] appears, read: single substance, inhibits bacterial growth for 24 hours.
Where [6] appears, read: single substance, inhibits bacterial growth for 24 hours, Bordatella bronchiseptica.

SMILES strings stand for the structures. In brackets after ≈: the same amount, converted by molar mass. Like-named read-outs stand apart in the source and are kept apart here.

As to `Cc1ccc2c(Cl)cc(Cl)c(O)c2n1` [Chlorchinaldol, 2-(Methyl)-5,7-di-(chlor)-8-(hydroxy)-chinolin], the MIC was determined as 5 µg/mL (≈ 21.9 µM) in experiment [1] (setting [5]), 5 µg/mL (≈ 21.9 µM) in experiment [2] (setting [5]), 5 µg/mL (≈ 21.9 µM) in experiment [3] (setting [6]) and 200 µg/mL (≈ 877 µM) in experiment [4].
For `CN(C)CCCN1c2ccccc2Sc2ccc(Cl)cc21` [Chlorpromazin, 2-Chlor-10-[3-(dimethylamino)-propyl]-phenothiazin], the MIC in experiment [1] (24 h) amounted to 25 µg/mL (≈ 78.4 µM); in experiment [2] (24 h) it was 25 µg/mL (≈ 78.4 µM); in experiment [3] (24 h), 200 µg/mL (≈ 627 µM); in experiment [4] it was 50 µg/mL (≈ 157 µM).
As for `COc1cc(Cc2cnc(N)nc2N)cc(OC)c1OC` [Trimethoprim, 2,4-Diamino-5-[3', 4', 5'-tri-(methoxy)-benzyl]-pyrimidin], the MIC in experiment [1] (setting [5]) stood at 50 µg/mL (≈ 172 µM); in experiment [2] (setting [5]) it was 100 µg/mL (≈ 344 µM); in experiment [3] (setting [6]), 50 µg/mL (≈ 172 µM); in experiment [4] it was 25 µg/mL (≈ 86.1 µM).

Values taken from patent EP0123157B1, “Medicaments and/or foodstuff concentrates with an anti-bacterial activity” (EGIS GYOGYSZERGYAR, priority 1983, dated 1984).
